System: KRAS patient-derived spheroids with HUVEC/MSC, viability
Experiment: Anticancer human tumor 323965-272-R-J2-PDC patient-derived pancreatic carcinoma cell line growth inhibition [KRAS2]
Details: for IC50: curve of first compound; for viability, T/C: stronger effect = lower value
In short: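 Combination screen of spheroid viability in tumor-cell co-cultures with endothelial (HUVEC) and mesenchymal stem cell stroma. Each agent was tested in half-log dilutions, topping at clinical Cmax or at 10 microM without a known Cmax.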

[1] = second compound 0.1 µM, first compound 0.0316 µM
[2] = second compound 0.1 µM, first compound 0.1 µM
[3] = second compound 0.1 µM, first compound 0.316 µM
[4] = second compound 0.1 µM, first compound 1 µM
[5] = second compound 0.1 µM, first compound 3.16 µM
[6] = second compound 0.316 µM, first compound 0.0316 µM
[7] = second compound 0.316 µM, first compound 0.1 µM
[8] = second compound 0.316 µM, first compound 0.316 µM
[9] = second compound 0.316 µM, first compound 1 µM
[10] = second compound 0.316 µM, first compound 3.16 µM
[11] = second compound 1 µM, first compound 0.0316 µM
[12] = second compound 1 µM, first compound 0.1 µM
[13] = second compound 1 µM, first compound 0.316 µM
[14] = second compound 1 µM, first compound 1 µM
[15] = second compound 1 µM, first compound 3.16 µM
[16] = second compound 3.16 µM, first compound 0.0316 µM
[17] = second compound 3.16 µM, first compound 0.1 µM
[18] = second compound 3.16 µM, first compound 0.316 µM
[19] = second compound 3.16 µM, first compound 1 µM
[20] = second compound 3.16 µM, first compound 3.16 µM
[21] = second compound 10 µM, first compound 0.0316 µM
[22] = second compound 10 µM, first compound 0.1 µM
[23] = second compound 10 µM, first compound 0.316 µM
[24] = second compound 10 µM, first compound 1 µM
[25] = second compound 10 µM, first compound 3.16 µM
[26] = second compound 0.1 µM, first compound 10 µM
[27] = second compound 0.316 µM, first compound 10 µM
[28] = second compound 1 µM, first compound 10 µM
[29] = second compound 3.16 µM, first compound 10 µM
[30] = second compound 10 µM, first compound 10 µM
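Also: spheroids exposed to agents for 7 days.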
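For viability, T/C in this document: 100% = DMSO vehicle control viability.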

Row | SMILES | IC50 (second compound 0.1 µM) [nM] | IC50 (second compound 0.316 µM) [nM] | IC50 (second compound 1 µM) [nM] | IC50 (second compound 3.16 µM) [nM] | IC50 (second compound 10 µM) [nM] | viability, T/C [1] [%] | viability, T/C [2] [%] | viability, T/C [3] [%] | viability, T/C [4] [%] | viability, T/C [5] [%] | viability, T/C [6] [%] | viability, T/C [7] [%] | viability, T/C [8] [%] | viability, T/C [9] [%] | viability, T/C [10] [%] | viability, T/C [11] [%] | viability, T/C [12] [%] | viability, T/C [13] [%] | viability, T/C [14] [%] | viability, T/C [15] [%] | also measured
1 | CC1COCCN1c1cc(-c2ccnn2C)c2ccnc(-c3ccn[nH]3)c2n1 (stereo not given) + COc1cc2nc(C)nc(NC(C)c3cc(N)cc(C(F)(F)F)c3)c2cc1OC1CCOC1 | 14.9 | 11 | 11.3 | 10.5 | < 10 | 26.8 | 16.5 | 12.8 | 11.5 | 12.2 | 24.2 | 13.1 | 12 | 11.6 | 11.6 | 21.4 | 12.4 | 10.3 | 10 | 11 | viability, T/C (second compound 0.1 µM, first compound 0.01 µM): 62%; viability, T/C (second compound 0.316 µM, first compound 0.01 µM): 52.5%; viability, T/C (second compound 1 µM, first compound 0.01 µM): 53.5%; viability, T/C (second compound 3.16 µM, first compound 0.01 µM): 51.4%; viability, T/C [16]: 19.5%; viability, T/C [17]: 9.99%; viability, T/C [18]: 9.71%; viability, T/C [19]: 9.06%; viability, T/C [20]: 9.91%; viability, T/C (second compound 10 µM, first compound 0.01 µM): 41.9%; viability, T/C [21]: 20.9%; viability, T/C [22]: 9.39%; viability, T/C [23]: 9.15%; viability, T/C [24]: 7.92%; viability, T/C [25]: 6.55%
2 | CC1OCC2(CCN(c3cnc(Sc4ccnc(N)c4Cl)c(N)n3)CC2)C1N (stereo not given) + COc1cc2nc(C)nc(NC(C)c3cc(N)cc(C(F)(F)F)c3)c2cc1OC1CCOC1 | 118 | 54.9 | < 31.6 | < 31.6 | < 31.6 | 66.7 | 49.4 | 41.4 | 33 | 24.1 | 52.5 | 47.9 | 40.2 | 27.5 | 26.1 | 43.5 | 34.6 | 31.1 | 24.7 | 19.4 | viability, T/C [26]: 21.1%; viability, T/C [27]: 19.1%; viability, T/C [28]: 20.6%; viability, T/C [16]: 46.6%; viability, T/C [17]: 33.7%; viability, T/C [18]: 29.6%; viability, T/C [19]: 17.7%; viability, T/C [20]: 13.8%; viability, T/C [29]: 16.9%; viability, T/C [21]: 49.2%; viability, T/C [22]: 35.6%; viability, T/C [23]: 17.5%; viability, T/C [24]: 12.9%; viability, T/C [25]: 11.5%; viability, T/C [30]: 11.4%
3 | Cn1nccc1Nc1nccc(-c2cc3c(s2)C(C)(C)N(CCN2CCOCC2)C3=O)n1 + COc1cc2nc(C)nc(NC(C)c3cc(N)cc(C(F)(F)F)c3)c2cc1OC1CCOC1 | 343 | 258 | 188 | 324 | 358 | 70.7 | 76.1 | 50.3 | 38.7 | 30.8 | 75.3 | 61.8 | 48.1 | 34.8 | 30.6 | 65.9 | 57.8 | 43 | 35.6 | 30 | viability, T/C [26]: 29.9%; viability, T/C [27]: 26.1%; viability, T/C [28]: 27.4%; viability, T/C [16]: 70.7%; viability, T/C [17]: 68.1%; viability, T/C [18]: 46.3%; viability, T/C [19]: 38%; viability, T/C [20]: 29.1%; viability, T/C [29]: 22.6%; viability, T/C [21]: 75.5%; viability, T/C [22]: 66.9%; viability, T/C [23]: 51.7%; viability, T/C [24]: 36.7%; viability, T/C [25]: 22.7%; viability, T/C [30]: 24.9%

From PubChem BioAssay AID1963869 (Molecular Pharmacology Branch, DTP, NCI, 2024)
